From ChEMBL document CHEMBL4359837, “Discovery of 2-(4-Chloro-3-(trifluoromethyl)phenyl)-N-(4-((6,7-dimethoxyquinolin-4-yl)oxy)phenyl)acetamide (CHMFL-KIT-64) as a Novel Orally Available Potent Inhibitor against Broad-Spectrum Mutants of c-KIT Kinase for Gastrointestinal Stromal Tumors” (J Med Chem, 2019)
Active and inactive are the calls of the source. The rule behind the calls is not given here.

Assays:
[1] = system: Mast/stem cell growth factor receptor Kit (Homo sapiens), P10721 [UNDEFINED MUTATION]; details: GISTT1, 0.1 uM
Sequence of Mast/stem cell growth factor receptor Kit (Homo sapiens), P10721 [UNDEFINED MUTATION] (P10721 whole entry, looked up, stated change not applied): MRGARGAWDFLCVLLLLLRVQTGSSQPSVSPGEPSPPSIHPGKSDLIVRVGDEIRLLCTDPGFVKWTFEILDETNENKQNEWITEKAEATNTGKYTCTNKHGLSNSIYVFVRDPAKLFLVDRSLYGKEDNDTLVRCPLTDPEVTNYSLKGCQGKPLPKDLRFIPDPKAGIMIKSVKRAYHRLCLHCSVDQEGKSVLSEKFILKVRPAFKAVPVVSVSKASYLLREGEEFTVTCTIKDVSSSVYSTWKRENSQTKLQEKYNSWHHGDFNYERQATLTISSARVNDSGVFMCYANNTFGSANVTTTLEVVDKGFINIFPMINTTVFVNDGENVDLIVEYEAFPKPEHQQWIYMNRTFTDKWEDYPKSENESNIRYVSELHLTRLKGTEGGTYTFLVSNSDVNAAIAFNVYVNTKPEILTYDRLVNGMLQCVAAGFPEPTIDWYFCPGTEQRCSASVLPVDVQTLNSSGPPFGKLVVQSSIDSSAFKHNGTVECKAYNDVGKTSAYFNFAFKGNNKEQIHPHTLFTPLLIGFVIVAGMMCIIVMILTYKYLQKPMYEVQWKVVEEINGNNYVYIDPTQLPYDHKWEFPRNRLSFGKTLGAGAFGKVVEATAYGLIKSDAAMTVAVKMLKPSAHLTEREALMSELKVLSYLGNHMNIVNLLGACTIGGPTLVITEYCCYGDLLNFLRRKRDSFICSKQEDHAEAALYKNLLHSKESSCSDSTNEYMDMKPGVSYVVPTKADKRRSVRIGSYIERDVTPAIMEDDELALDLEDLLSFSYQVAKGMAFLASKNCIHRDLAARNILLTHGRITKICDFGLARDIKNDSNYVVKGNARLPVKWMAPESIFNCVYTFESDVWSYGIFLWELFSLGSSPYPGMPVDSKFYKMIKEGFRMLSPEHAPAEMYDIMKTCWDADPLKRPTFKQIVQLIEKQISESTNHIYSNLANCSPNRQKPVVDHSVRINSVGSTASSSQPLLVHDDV
Description: Inhibition of c-KIT 560 to 578 deletion mutant in human GISTT1 cells assessed as reduction in c-KIT autophosphorylation at Y703 residue at 0.1 uM measured after 2 hrs by Western blot analysis

[2] = system: Mast/stem cell growth factor receptor Kit (Homo sapiens), P10721 [UNDEFINED MUTATION]; details: 0.1 uM
Description: Inhibition of c-KIT 560 to 578 deletion/T670I mutant in human GIST5R assessed as reduction in ERK phosphorylation at T202 residue at 0.1 uM measured after 2 hrs by Western blot analysis

[3] = system: Mast/stem cell growth factor receptor Kit (Homo sapiens), P10721 [UNDEFINED MUTATION]; details: GISTT1, 0.1 uM; remark: listed apart in the source
Description: Inhibition of c-KIT 560 to 578 deletion/T670I mutant in human GISTT1 cells assessed as reduction in pS6 phosphorylation at S236 residue at 0.1 uM measured after 2 hrs by Western blot analysis

[4] = system: Mast/stem cell growth factor receptor Kit (Homo sapiens), P10721 [UNDEFINED MUTATION]; details: 0.1 uM; remark: listed apart in the source
Description: Inhibition of c-KIT 560 to 578 deletion/T670I mutant in human GIST5R assessed as reduction in pS6 phosphorylation at S235 residue at 0.1 uM measured after 2 hrs by Western blot analysis

[5] = system: Mast/stem cell growth factor receptor Kit (Homo sapiens), P10721 [UNDEFINED MUTATION]; details: GISTT1, 0.1 uM; remark: listed apart in the source
Description: Inhibition of c-KIT 560 to 578 deletion mutant in human GISTT1 cells assessed as reduction in c-KIT autophosphorylation at Y719 residue at 0.1 uM measured after 2 hrs by Western blot analysis

[6] = system: Mast/stem cell growth factor receptor Kit (Homo sapiens), P10721 [UNDEFINED MUTATION]; details: GISTT1, 0.1 uM; remark: listed apart in the source
Description: Inhibition of c-KIT 560 to 578 deletion/T670I mutant in human GISTT1 cells assessed as reduction in c-KIT autophosphorylation at Y823 residue at 0.1 uM measured after 2 hrs by Western blot analysis

[7] = system: Mast/stem cell growth factor receptor Kit (Homo sapiens), P10721 [UNDEFINED MUTATION]; details: GISTT1, 0.1 uM; remark: listed apart in the source
Description: Inhibition of c-KIT 560 to 578 deletion mutant in human GISTT1 cells assessed as reduction in c-KIT autophosphorylation at Y823 residue at 0.1 uM measured after 2 hrs by Western blot analysis

[8] = system: Mast/stem cell growth factor receptor Kit (Homo sapiens), P10721 [UNDEFINED MUTATION]; details: GISTT1, 0.1 uM; remark: listed apart in the source
Description: Inhibition of c-KIT 560 to 578 deletion/T670I mutant in human GISTT1 cells assessed as reduction in AKT phosphorylation at S473 residue at 0.1 uM measured after 2 hrs by Western blot analysis

[9] = molecular target: T1, Mast/stem cell growth factor receptor Kit (Homo sapiens, UniProt P10721, 560-578DEL); format: cell-based, GISTT1
T1 sequence (P10721 whole entry, looked up, stated change not applied, the tested form may be a part): as the sequence (P10721 whole entry, looked up, stated change not applied) above

[10] = molecular target: T2, Epithelial discoidin domain-containing receptor 1 (Homo sapiens, UniProt Q08345); test: Binding affinity to wild-type human partial length DDR1 (R565 to V876 residues) expressed in bacterial expression system assessed as residual binding level at 1 uM by Kinomescan method relative to control
T2 sequence (Q08345 whole entry, the tested form may be a part): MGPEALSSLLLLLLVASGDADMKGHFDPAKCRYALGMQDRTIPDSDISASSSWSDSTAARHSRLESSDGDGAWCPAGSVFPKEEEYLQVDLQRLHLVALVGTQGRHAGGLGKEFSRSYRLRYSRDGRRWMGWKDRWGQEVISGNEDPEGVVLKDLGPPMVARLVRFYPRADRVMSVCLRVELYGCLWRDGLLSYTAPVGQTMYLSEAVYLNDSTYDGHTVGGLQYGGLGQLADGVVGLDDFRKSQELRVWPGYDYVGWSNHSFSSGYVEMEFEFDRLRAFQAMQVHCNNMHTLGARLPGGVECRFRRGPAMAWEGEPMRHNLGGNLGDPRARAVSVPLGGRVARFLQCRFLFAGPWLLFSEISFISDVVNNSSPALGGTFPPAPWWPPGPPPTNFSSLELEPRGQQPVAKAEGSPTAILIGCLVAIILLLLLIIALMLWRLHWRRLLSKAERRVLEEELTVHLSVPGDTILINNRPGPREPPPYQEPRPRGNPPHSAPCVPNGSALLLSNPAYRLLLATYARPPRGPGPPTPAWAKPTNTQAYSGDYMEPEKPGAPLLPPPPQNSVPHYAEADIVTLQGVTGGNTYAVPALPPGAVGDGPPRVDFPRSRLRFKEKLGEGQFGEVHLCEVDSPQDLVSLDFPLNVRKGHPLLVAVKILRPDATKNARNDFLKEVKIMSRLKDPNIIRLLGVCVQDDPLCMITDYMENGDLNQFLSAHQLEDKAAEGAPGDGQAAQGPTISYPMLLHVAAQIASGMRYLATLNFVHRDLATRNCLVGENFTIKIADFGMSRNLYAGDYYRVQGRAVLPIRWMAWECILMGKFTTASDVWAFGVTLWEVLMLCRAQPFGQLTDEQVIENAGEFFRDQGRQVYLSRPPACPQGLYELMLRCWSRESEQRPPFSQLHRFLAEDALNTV

[11] = molecular target: T1, Mast/stem cell growth factor receptor Kit; format: cell-based, GISTT1; remark: listed apart in the source
[12] = system: GISTT1; format: functional
[13] = system: Mus musculus; test: Antitumor activity against mouse BAF3(transformed) cells harboring c-KIT Y823D mutant implanted in BALB/c nu mouse assessed as tumor growth inhibition administered via oral gavage for 9 days; format: functional
[14] = molecular target: T1, Mast/stem cell growth factor receptor Kit; format: cell-based, GISTT1; remark: listed apart in the source
[15] = Antitumor activity against mouse BAF3(transformed) cells harboring c-KIT Y823D mutant implanted in BALB/c nu mouse assessed as tumor growth inhibition at 40 mg/kg/day, po administered via gavage for 9 days relative to control; format: functional; details: 216 h, read-out: TGI
[16] = Antitumor activity against mouse BAF3(transformed) cells harboring c-KIT T670I mutant implanted in BALB/c nu mouse assessed as tumor growth inhibition at 100 mg/kg/day, po administered via gavage for 11 days relative to control; format: functional; details: 264 h, read-out: TGI
[17] = system: Mus musculus; format: functional, organism-based; details: BALB/c, 80 mg/kg, TDE = time-dependent effect
[18] = molecular target: Epithelial discoidin domain-containing receptor 1 (Mus musculus) (UniProt Q03146); test: Inhibition of DDR1 in mouse BAF3(transformed) cells assessed as growth inhibition after 72 hrs by CCK8 assay
Sequence of Epithelial discoidin domain-containing receptor 1 (Mus musculus) (Q03146 whole entry, the tested form may be a part): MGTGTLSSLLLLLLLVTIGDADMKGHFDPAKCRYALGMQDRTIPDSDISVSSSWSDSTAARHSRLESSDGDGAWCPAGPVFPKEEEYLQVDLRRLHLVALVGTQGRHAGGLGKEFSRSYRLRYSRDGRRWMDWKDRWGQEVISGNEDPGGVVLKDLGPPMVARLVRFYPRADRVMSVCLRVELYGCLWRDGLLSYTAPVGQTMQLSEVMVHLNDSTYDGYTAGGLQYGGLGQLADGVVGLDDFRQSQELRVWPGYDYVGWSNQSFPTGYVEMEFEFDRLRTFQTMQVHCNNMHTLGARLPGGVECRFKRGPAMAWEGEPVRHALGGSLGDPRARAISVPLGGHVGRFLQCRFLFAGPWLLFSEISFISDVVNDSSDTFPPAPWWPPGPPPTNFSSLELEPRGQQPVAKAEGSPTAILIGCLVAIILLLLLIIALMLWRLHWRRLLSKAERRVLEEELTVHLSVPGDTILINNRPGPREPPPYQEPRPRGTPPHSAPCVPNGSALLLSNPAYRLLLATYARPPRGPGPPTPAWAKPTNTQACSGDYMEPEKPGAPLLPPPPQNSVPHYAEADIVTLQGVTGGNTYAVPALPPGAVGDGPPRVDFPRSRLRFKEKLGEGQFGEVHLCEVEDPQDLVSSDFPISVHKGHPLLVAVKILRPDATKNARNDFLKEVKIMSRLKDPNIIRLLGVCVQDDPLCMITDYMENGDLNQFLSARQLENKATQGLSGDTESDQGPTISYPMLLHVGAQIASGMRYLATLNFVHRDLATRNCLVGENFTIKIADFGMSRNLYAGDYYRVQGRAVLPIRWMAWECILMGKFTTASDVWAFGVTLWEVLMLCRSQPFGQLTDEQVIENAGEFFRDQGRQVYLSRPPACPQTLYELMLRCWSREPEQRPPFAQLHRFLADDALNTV

[19] = system: GISTT1; format: functional, cell-based; details: Homo sapiens
[20] = Toxicity in BALB/c nu mouse implanted with mouse BAF3(transformed) cells harboring c-KIT Y823D mutant assessed as change in body weight at 40 to 80 mg/kg/day, po administered via gavage for 9 days measured daily during compound dosing; format: organism-based; details: in vivo, 216 h
[21] = molecular target: T3, Mast/stem cell growth factor receptor Kit (Homo sapiens, UniProt P10721, 560-578DEL/T670I); format: cell-based, GISTT1
T3 sequence (P10721 whole entry, looked up, stated change not applied): as the sequence (P10721 whole entry, looked up, stated change not applied) above

[22] = Protein binding in plasma (unknown origin); format: ADME, cell-free; details: read-out: PPB
[23] = organism: Homo sapiens; format: functional, cell-based
[24] = system: GISTT1; format: functional, Homo sapiens
[25] = molecular target: Serine/threonine-protein kinase 10 (Homo sapiens) (UniProt O94804); test: Binding affinity to wild-type human partial length LOK (E16 to V314 residues) expressed in bacterial expression system assessed as residual binding level at 1 uM by Kinomescan method relative to control
Sequence of Serine/threonine-protein kinase 10 (Homo sapiens) (O94804 whole entry, looked up, the tested form may be a part): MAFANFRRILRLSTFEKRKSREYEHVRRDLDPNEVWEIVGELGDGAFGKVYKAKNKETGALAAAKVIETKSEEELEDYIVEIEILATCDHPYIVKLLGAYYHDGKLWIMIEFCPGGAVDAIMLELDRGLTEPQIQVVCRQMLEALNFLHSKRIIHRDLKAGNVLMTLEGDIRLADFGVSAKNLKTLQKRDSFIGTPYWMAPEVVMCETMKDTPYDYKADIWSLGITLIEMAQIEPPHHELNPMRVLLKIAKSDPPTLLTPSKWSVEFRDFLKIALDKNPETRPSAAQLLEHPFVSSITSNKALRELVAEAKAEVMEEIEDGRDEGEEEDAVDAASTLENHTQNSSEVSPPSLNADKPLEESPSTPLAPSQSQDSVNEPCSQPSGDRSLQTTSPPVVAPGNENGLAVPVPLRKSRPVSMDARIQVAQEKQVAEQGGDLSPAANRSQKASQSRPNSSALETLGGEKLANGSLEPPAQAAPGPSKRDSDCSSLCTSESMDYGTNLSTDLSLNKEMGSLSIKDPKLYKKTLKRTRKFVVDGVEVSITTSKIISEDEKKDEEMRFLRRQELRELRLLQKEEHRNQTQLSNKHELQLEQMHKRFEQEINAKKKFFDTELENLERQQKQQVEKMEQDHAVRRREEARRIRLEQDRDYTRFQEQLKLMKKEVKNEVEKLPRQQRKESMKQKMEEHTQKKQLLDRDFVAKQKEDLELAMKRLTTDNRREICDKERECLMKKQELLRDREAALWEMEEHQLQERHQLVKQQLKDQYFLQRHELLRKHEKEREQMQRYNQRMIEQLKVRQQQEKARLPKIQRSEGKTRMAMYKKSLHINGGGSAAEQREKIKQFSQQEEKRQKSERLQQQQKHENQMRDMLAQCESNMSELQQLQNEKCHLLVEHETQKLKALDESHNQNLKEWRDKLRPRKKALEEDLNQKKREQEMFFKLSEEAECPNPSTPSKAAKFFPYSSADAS

[26] = system: Mus musculus; test: Antitumor activity against mouse BAF3(transformed) cells harboring c-KIT D820G mutant implanted in BALB/c nu mouse assessed as tumor growth inhibition administered via oral gavage for 9 days; format: functional
[27] = molecular target: T3, Mast/stem cell growth factor receptor Kit; format: cell-based, GISTT1; remark: listed apart in the source
[28] = system: GISTT1; format: functional, Homo sapiens; details: Mus musculus, GISTT1, po, 672 h; read-out: TGI
[29] = Half life in Sprague-Dawley rat at 10 mg/kg, po by LC-MS/MS analysis; format: ADME, organism-based; details: in vivo
[30] = Cmax in mouse at 1 mg/kg, iv by LC-MS/MS analysis; format: ADME, organism-based; set-up: dose 1 mg/kg, route intravenous; details: in vivo
[31] = system: GISTT1; format: functional, cell-based; details: Homo sapiens; remark: listed apart in the source
[32] = Antitumor activity against mouse BAF3(transformed) cells harboring c-KIT D820G mutant implanted in BALB/c nu mouse assessed as tumor growth inhibition at 40 mg/kg/day, po administered via gavage for 9 days relative to control; format: functional; details: 216 h, read-out: TGI
[33] = system: Homo sapiens; format: functional; details: 40 mg/kg
[34] = system: Mus musculus; format: functional, organism-based; details: BALB/c, 80 mg/kg, TDE = time-dependent effect; remark: listed apart in the source
[35] = molecular target: T3, Mast/stem cell growth factor receptor Kit; format: cell-based, GISTT1; remark: listed apart in the source
[36] = molecular target: T3, Mast/stem cell growth factor receptor Kit
[37] = molecular target: T3, Mast/stem cell growth factor receptor Kit; format: cell-based, GISTT1; remark: listed apart in the source
[38] = molecular target: T3, Mast/stem cell growth factor receptor Kit; format: cell-based, GISTT1; remark: listed apart in the source
[39] = molecular target: T2, Epithelial discoidin domain-containing receptor 1; test: Inhibition of human GST-tagged DDR1 catalytic domain (440 to 876 residues) expressed in baculovirus expression system by Lanthascreen Eu-binding assay

Question: For `CCN(CC)CCNC(=O)c1c(C)[nH]c(/C=C2\C(=O)Nc3ccc(F)cc32)c1C` [SUNITINIB], which inhibition [1] is on record?
Answer: Active

Question: And the inhibition [2]?
Answer: Active

Question: What about the inhibition [3] of the same compound?
Answer: Active

Question: What about the inhibition [4] of the same compound?
Answer: Active

Question: And the inhibition [5]?
Answer: Active

Question: What about the inhibition [6] of the same compound?
Answer: Active

Question: What about the inhibition [7] of the same compound?
Answer: Active

Question: And the inhibition [8]?
Answer: Active

Question: What does the source list for `COc1cc2nccc(Oc3ccc(NC(=O)Cc4ccc(Cl)c(C(F)(F)F)c4)cc3)c2cc1OC`?
Answer: EC50 [9]: < 100 nM; Activity [10]: < 1%; EC50 [11]: < 100 nM; TGI ([12]; Homo sapiens, 40 mg/kg): Dose-dependent effect; inhibition in vivo at 40 mg/kg/day ([12]; Mus musculus, GISTT1, po, 672 h, read-out: TGI): 76.4%; TGI [13]: Dose-dependent effect; EC50 [14]: < 100 nM; inhibition in vivo at 40 mg/kg/day [15]: 81.8%; inhibition in vivo at 100 mg/kg/day [16]: 100%; inhibition [17]: Tde; GI50 [18]: > 1000 nM; Activity [19]: Dose-dependent effect; Activity [20]: Non-Toxic; EC50 [21]: < 100 nM; fraction unbound [22]: < 0.1; Activity [23]: Dose-dependent effect; Activity [24]: 0.27 g; Activity [25]: < 1%; TGI [26]: Dose-dependent effect; EC50 [27]: < 100 nM; inhibition in vivo at 40 mg/kg/day [28]: 96.9%; half-life [29]: 6.41 h; Cmax [30]: 520 ng/mL; TGI [31]: Dose-dependent effect; inhibition in vivo at 40 mg/kg/day [32]: 88.9%; TGI [33]: Dose-dependent effect; inhibition [34]: Tde; EC50 [35]: < 100 nM; EC50 [36]: < 100 nM; EC50 [37]: < 100 nM; EC50 [38]: < 100 nM; IC50 [39]: 135 nM
